US5981583A (priority 1997, dated 1999)
Where two headings read alike, the source gives them in different places.

Legend:
NF-κB [1] = assay type: cell-based, human
NF-κB [2] = assay type: biochemical, human
AP-1 = assay type: cell-based; settings: 25 μg/ml, 2 hours
NF-κB [3] = assay type: cell-based, human; remark: listed apart in the source
Oct-1 = assay type: cell-based; settings: 25 μg/ml, 2 hours
TFII D = assay type: cell-based; settings: 25 μg/ml, 2 hours
p65 [4] = assay type: cell-based, human
IκBa [5] = assay type: cell-based, human
in vitro [6] = settings: human, u937 cells
NF-κB [7] = assay type: biochemical
p50 = assay type: cell-based
NF-κB [8] = assay type: cell-based, human; remark: listed apart in the source
c-Rel = assay type: cell-based
[9] = tested on: IκBa promoter linked to the CAT gene; assay type: cell-based
in vitro [10] = test: in vitro
p65 [11] = assay type: cell-based, human; remark: listed apart in the source
IκBa [12] = assay type: cell-based, human; remark: listed apart in the source
NF-κB [13] = assay type: cell-based, human; remark: listed apart in the source
NF-κB [14] = assay type: cell-based
NF-κB [15] = assay type: cell-based, human; remark: listed apart in the source
NF-κB [16] = assay type: cell-based; remark: listed apart in the source

SMILES: O=C(C=Cc1ccc(O)c(O)c1)OCCCc1ccccc1 [compound 4]
- activity in inhibiting NF-κB activation relative to CAPE (NF-κB [1]): less active than CAPE
- effect of CAPE analogues on TNF-induced NF-κB activation (NF-κB [1]): significant loss of inhibition

SMILES: O=C(/C=C/c1ccc(O)c(O)c1)OCCc1ccccc1 [CAPE, caffeic acid (3,4-dihydroxy cinnamic acid) phenethyl ester]
- binding of NF-κB to DNA, deoxycholate-treated cytoplasmic extracts (NF-κB [2]): interfered with the binding of NF-κB proteins to DNA
- binding of NF-κB to DNA, nuclear extracts from TNF-preactivated cells (NF-κB [2]): prevented NF-κB from binding to DNA
- DNA-binding ability of AP-1 (AP-1): did not inhibit
- activation of NF-κB induced by H2O2 (NF-κB [3]): completely blocked
- activation of NF-κB induced by ceramide (NF-κB [3]): completely blocked
- activation of NF-κB induced by okadaic acid (NF-κB [3]): completely blocked
- activation of NF-κB induced by phorbol myristate acetate (NF-κB [3]): completely blocked
- CAPE-induced inhibition of NF-κB activation in the presence of reducing agents (NF-κB [1]): reversed completely
- activation of NF-κB by the substance alone (NF-κB [1]): No activation
- concentration with maximum effect on TNF-dependent activation of NF-κB (NF-κB [1]): 25 µg/mL
- inhibition of TNF-dependent activation of NF-κB (NF-κB [1]): inhibited the TNF-dependent activation of NF-κB in a dose-dependent manner
- kinetics of inhibition of TNF response: cotreatment with TNF (NF-κB [1]): not effective
- kinetics of inhibition of TNF response: pretreatment (NF-κB [1]): inhibited only when the cells were pretreated
- DNA-binding ability of Oct-1 (Oct-1): did not inhibit
- DNA-binding ability of TFII D (TFII D): did not inhibit
- TNF-induced appearance of p65 in the nucleus (p65 [4]): blocked
- cytoplasmic pool of p65 (p65 [4]): none of the treatments altered significantly
- TNF-induced rate of degradation of IκBa (IκBa [5]): did not affect significantly
- cytoplasmic pool of IκBa, substance alone (IκBa [5]): no effect
- resynthesis of IκBa after TNF (IκBa [5]): did delay its resynthesis
- viability (in vitro [6]): > 98%

SMILES: COc1cc(CNC(=O)CCCCC=CC(C)C)ccc1O [capsaicin, 8-methyl-N-vanillyl-6-nonenamid]
- ability of NF-κB to bind to the DNA, deoxycholate-treated cytoplasmic extracts from capsaicin-exposed cells (NF-κB [7]): did not modify
- ability of NF-κB to bind to the DNA, nuclear extracts exposed to capsaicin after TNF treatment (NF-κB [7]): did not modify
- level of p50 protein in cytosolic fraction (p50): neither capsaicin by itself or in combination with TNF had any effect
- NF-κB activation mediated through okadaic acid (NF-κB [8]): inhibited only partially
- phorbol myristate acetate-induced activation of NF-κB (NF-κB [8]): completely blocked
- level of c-Rel protein in cytosolic fraction (c-Rel): neither capsaicin by itself or in combination with TNF had any effect
- TNF-enhanced CAT activity, pIκBCAT-transfected cells [9]: reduced significantly
- viability at 2 h, 100 µM (in vitro [10]): 99%
- viability at 2 h, 200 µM (in vitro [10]): 98%
- viability at 2 h, 300 µM (in vitro [10]): 95%
- TNF-induced migration of p65 into the nucleus (p65 [11]): did block the TNF-induced migration
- level of cytoplasmic p65, capsaicin alone (p65 [11]): remained unaffected
- migration of p65 protein into the nucleus, capsaicin by itself (p65 [11]): did not induce this migration
- TNF-mediated degradation of IκBa (IκBa [12]): abolished
- appearance of TNF-mediated slower-migrating band of IκBa (IκBa [12]): abolished
- level of cytoplasmic IκBa, capsaicin alone (IκBa [12]): remained unaffected
- NF-κB activation on co-incubation with TNF (NF-κB [13]): did not block NF-κB activation
- activation of NF-κB by 10 nM TNF (NF-κB [13]): completely inhibited
- activation of NF-κB by the substance itself (NF-κB [13]): did not activate NF-κB
- concentration that inhibited most of the activation induced by TNF (NF-κB [13]): 200 to 300 µM
- pre-incubation time for maximum inhibition of the response to TNF (NF-κB [13]): 120 min
- concentration with almost complete inhibition of TNF-induced NF-κB (NF-κB [14]): 200 µM
- concentration with almost complete inhibition of TNF-induced NF-κB (NF-κB [15]): 200 µM

SMILES: O=C(C=Cc1ccc(O)c(O)c1O)OCCc1ccccc1 [compound 3]
- activity in inhibiting NF-κB activation relative to CAPE (NF-κB [1]): less active than CAPE
- effect of CAPE analogues on TNF-induced NF-κB activation (NF-κB [1]): loss of potency

SMILES: C=C(C)[C@]12C[C@@H](C)[C@@]34O[C@](Cc5ccccc5)(O[C@@H]1[C@@H]3C=C(COC(=O)Cc1ccc(O)c(OC)c1)C[C@]1(O)C(=O)C(C)=C[C@@H]41)O2 [resiniferatoxin]
- TNF-mediated activation of NF-κB (NF-κB [16]): completely inhibited
- activation of NF-κB by the substance itself (NF-κB [16]): did not activate NF-κB
- concentration sufficient for maximum inhibition of the TNF response (NF-κB [16]): 40 µM
- potency relative to capsaicin (NF-κB [16]): approximately 8 fold

SMILES: O=C(C=Cc1cc(O)ccc1O)OCCc1ccccc1 [compound 1]
- activity in inhibiting NF-κB activation relative to CAPE (NF-κB [1]): as active as CAPE
- effect of CAPE analogues on TNF-induced NF-κB activation (NF-κB [1]): increased the potency of inhibition

SMILES: COc1ccc(C=CC(=O)OCCc2ccccc2)cc1OC [compound 2]
- activity in inhibiting NF-κB activation relative to CAPE (NF-κB [1]): less active than CAPE
